{"source": "patent US12642806B2", "about": "“Cannabidiol compositions for use in treating heart conditions” (CARDIOL THERAPEUTICS INC., priority 2019, dated 2026)", "key": {"CB2 receptor [1]": {"target": "T1, CB2 receptor (Homo sapiens, UniProt P34972)", "T1 sequence (P34972 whole entry)": "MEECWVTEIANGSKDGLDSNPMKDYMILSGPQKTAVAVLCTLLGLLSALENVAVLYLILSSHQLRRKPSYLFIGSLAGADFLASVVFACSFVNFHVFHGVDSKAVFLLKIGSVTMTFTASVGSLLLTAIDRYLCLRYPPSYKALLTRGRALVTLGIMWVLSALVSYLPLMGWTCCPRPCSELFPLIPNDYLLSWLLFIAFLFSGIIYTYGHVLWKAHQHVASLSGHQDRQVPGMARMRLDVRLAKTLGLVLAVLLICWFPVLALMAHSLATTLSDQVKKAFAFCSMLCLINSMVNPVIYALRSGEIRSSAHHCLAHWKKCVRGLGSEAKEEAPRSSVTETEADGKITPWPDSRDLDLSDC", "conditions": "literature (Proc Natl Acad Sci USA 2008); cited from earlier work"}, "CB2 receptor [2]": {"target": "T1, CB2 receptor", "conditions": "literature (Proc Natl Acad Sci USA 2008); cited from earlier work", "remark": "listed apart in the source"}, "H9c2 cells [3]": {"test_system": "H9c2 cells", "experiment": "Angiotensin II-mediated cardiomyocyte hypertrophy in H9c2 cells, cell surface area (calcein, confocal microscopy)", "assay_type": "cell-based", "conditions": "compared with Ang group", "protocol": "A study was conducted to determine the effect of CBD in a model of cardiomyocyte hypertrophy, using H9c2 cells, a cardiomyocyte cell line, in vitro. In this study, H9c2 cells grown in a culture medium were divided into four groups. To one group nothing was added (“Control”). To the second, third and fourth groups, Angiotensin II was added to the culture medium (“Ang”) to give a final concentration of 1.0 μM. The Angiotensin II was added to induce hypertrophy. To the third group, CBD was also added to give a concentration of 0.1 μM (“Ang+CBD 0.1 μM”). Finally, to the fourth group, CBD was also added to give a concentration of 1 μM (“Ang+CBD 1 μM”).\nFIG. 1 contains representative confocal microscopy images of the H9c2 cells in each group. The images were obtained using a model with the same parameters and cell staining, to determine the surface area per cell, was achieved using calcein fluorescent dye. […] The results are summarized in FIG. 2, wherein each group comprises at least 3 independent replicates per group."}, "H9c2 cells [4]": {"test_system": "H9c2 cells", "experiment": "Repeated H9c2 hypertrophy study: BNP and collagen mRNA, mitochondrial ROS (MitoSOX)", "assay_type": "cell-based", "protocol": "The study was repeated using H9c2 cells grown in a culture medium divided into seven groups. To one group nothing was added (“CTRL”). To the second, fourth, fifth, sixth, and seventh groups, Angiotensin II was added to the culture medium (“ANG”) to give a final concentration of 1.0 μM. The Angiotensin II was added to induce hypertrophy. To the third group, CBD was added to give a concentration of 0.1 μM (“CBD 0.1 μM”) as an additional control group. CBD was also added to (a) the fourth group to give a concentration of 0.001 μM (“ANG+CBD 0.001 μM”), (b) the fifth group to give a concentration of 0.01 μM (“ANG+CBD 0.01 μM”), (c) the sixth group to give a concentration of 0.1 μM (“ANG+CBD 0.1 μM”), and, finally, (d) the seventh group to give a concentration of 1 μM (“ANG+CBD 1 μM”)."}, "[5]": {"test_system": "mouse model of non-ischemic heart failure (HF)", "experiment": "Mouse model of non-ischemic heart failure (L-NAME/NaCl + Angiotensin II)", "assay_type": "in vivo, C57BL/6 laboratory mice", "conditions": "for cardiac fibrosis (Masson's Trichrome) / myocyte area (hypertrophy): 4 weeks, vs Angiotensin group; for mRNA expression of BNP in heart tissue (qPCR): compared with ANG group", "protocol": "Tests were done to evaluate the potential for CBD in treating or preventing heart failure in a mouse model of non-ischemic heart failure (HF) illustrated in FIG. 5.\nThree to four week old male C57BL/6 laboratory mice were used in the experiments. The mice were divided into four groups. A first group (the Control) received nothing. The second group of mice (Angiotensin) was provided with water containing 0.1 mg/ml of N(gamma)-nitro-L-arginine methyl ester (L-NAME) and 1% sodium chloride (NaCl) ad libitum for one week. Following this, 0.7 mg/kg/week of Angiotensin II was administered subcutaneously for 4 weeks using osmotic pumps. The third group and fourth group were subjected to the same protocol as the second group, however, the third group (ANG+CBD 1 mg/kg) and fourth group (ANG+CBD 10 mg/kg) also received synthetic CBD subcutaneously in an amount of 1 mg/kg and 10 mg/kg, respectively, once every 3 days during the same four week period. The CBD compositions used in this experiment consisted of CBD dissolved in PEG400.\nAfter four weeks of treatment, cardiac tissue was evaluated for fibrosis and myocyte hypertrophy and changes in remodeling and inflammation biomarkers."}, "human lymphocytes": {"test_system": "human lymphocytes", "experiment": "CD69 expression by ionomycin/PMA-activated human lymphocytes (flow cytometry)", "assay_type": "cell-based", "conditions": "CBD 5 μg/mL or greater, added 15 minutes before 4 hours stimulation with ionomycin 1 μg/ml and PMA 50 ng/ml", "protocol": "(§1) A further study was performed to determine the effect of CBD on the expression of CD69 (a marker of leukocyte activation) by human lymphocytes and monocytes that had been activated by ionomycin (1 μg/mL) and phorbol myristate acetate (PMA, 50 ng/mL) in vitro.\n(§2) Mononuclear cells from a healthy human donor were isolated using a gradient method with Ficoll-Pacque™ Healthcare. Cells were washed with RPMI media with 10% FCS and 1% Penn/Strept and then placed in 12 well trays at 1×10^6 cells/mL and stimulated for 4 hours with Ionomycin 1 μg/ml and 50 ng/ml PMA. CBD was added 15 minutes before using DMSO as a vehicle. After the stimulation, cells were washed again and resuspended in 150 μL staining buffer (PBS+1% BSA). An optimized protocol for surface marker staining was used. CD69 was added to the cells, which were then incubated for 15 minutes in the dark at room temperature. After this, cells were washed twice with PBS+1% BSA and resuspended in 150 μL buffer. Cells were kept at 4 degrees prior to being analyzed in a FACSCanto™ II cytometer. Cell populations were determined by FSC/SSC. The number of events were at least 2000 events per gate. […] The data was analyzed with FlowJo X. Doublets were discriminated with an exclusion gate of FSC-A/FSC-W. Gating for lymphocytes and monocytes was determined by FSC-A/SSC-A. The frequency and expression of CD69-FITC was analyzed in its FITC channel."}, "human monocytes": {"test_system": "human monocytes", "experiment": "CD69 expression by ionomycin/PMA-activated human monocytes (flow cytometry)", "assay_type": "cell-based", "conditions": "CBD 5 μg/mL or greater, added 15 minutes before 4 hours stimulation with ionomycin 1 μg/ml and PMA 50 ng/ml", "protocol": "as §1, §2"}, "[6]": {"conditions": "taken orally; background statement; cited from earlier work"}, "[7]": {"conditions": "ANG+CBD 1 μM compared to ANG group"}, "[8]": {"conditions": "Angiotensin II 1.0 μM + CBD 0.001, 0.01, 0.1, 1 μM"}, "[9]": {"conditions": "CBD 1 mg/kg body weight subcutaneously"}, "[10]": {"conditions": "CBD 1 mg/kg subcutaneously once every 3 days"}, "[11]": {"conditions": "CBD 10 mg/kg subcutaneously once every 3 days"}}, "data": [{"smiles": "C=C1CC/C=C(\\C)CC[C@@H]2[C@@H]1CC2(C)C", "note": "[β-caryophyllene, trans-(1R,9S)-8-Methylene-4,11,11-trimethylbicyclo[7.2.0]undec-4-ene]", "values": [{"measurement": "binding to the CB2 receptor", "setting": "CB2 receptor [1]", "result": "selectively binds to the CB2 receptor"}, {"measurement": "functional activity at CB2", "setting": "CB2 receptor [2]", "result": "functional CB2 agonist"}]}, {"smiles": "C=C(C)[C@@H]1CCC(C)=C[C@H]1c1c(O)cc(CCCCC)cc1O", "note": "[CBD, cannabidiol]", "values": [{"measurement": "cell surface area of H9c2 cells", "setting": "H9c2 cells [3]; Angiotensin II 1.0 μM + CBD 0.1 μM", "result": "significantly smaller"}, {"measurement": "cell surface area of H9c2 cells", "setting": "H9c2 cells [3]; Angiotensin II 1.0 μM + CBD 1 μM", "result": "significantly smaller"}, {"measurement": "mRNA level of expression of collagen", "setting": "H9c2 cells [4]; ANG+CBD 0.1 μM compared to ANG group", "result": "significantly reduced"}, {"measurement": "mRNA level of expression of BNP", "setting": "H9c2 cells [4]; [7]", "result": "significantly reduced"}, {"measurement": "mRNA level of expression of collagen", "setting": "H9c2 cells [4]; [7]", "result": "significantly reduced"}, {"measurement": "mRNA level of expression of BNP", "setting": "H9c2 cells [4]; [8]", "result": "dose-dependent reduction"}, {"measurement": "mRNA level of expression of collagen", "setting": "H9c2 cells [4]; [8]", "result": "dose-dependent reduction"}, {"measurement": "Mitochondrial reactive oxygen species (ROS, MitoSOX)", "setting": "H9c2 cells [4]; Angiotensin II 1.0 μM + CBD at different doses", "result": "reduced down to control levels"}, {"measurement": "mRNA expression of IL10", "setting": "[5]; [9]", "result": "significantly increased"}, {"measurement": "mRNA expression of pro-inflammatory cytokine IL6", "setting": "[5]; [9]", "result": "significantly decreased"}, {"measurement": "cardiac fibrosis (Masson's Trichrome)", "setting": "[5]; [10]", "result": "effective to reduce"}, {"measurement": "myocyte area (hypertrophy)", "setting": "[5]; [10]", "result": "effective to reduce"}, {"measurement": "mRNA expression of BNP in heart tissue (qPCR)", "setting": "[5]; CBD 1 mg/kg subcutaneously", "result": "significant reduction"}, {"measurement": "mRNA expression of pro-inflammatory cytokine IL6", "setting": "[5]; CBD 10 mg/kg body weight subcutaneously", "result": "significantly decreased"}, {"measurement": "cardiac fibrosis (Masson's Trichrome)", "setting": "[5]; [11]", "result": "effective to reduce"}, {"measurement": "myocyte area (hypertrophy)", "setting": "[5]; [11]", "result": "effective to reduce"}, {"measurement": "mRNA expression of BNP in heart tissue (qPCR)", "setting": "[5]; CBD 10 mg/kg subcutaneously", "result": "significant reduction"}, {"measurement": "mRNA expression of pro-inflammatory cytokine IL1β", "setting": "[5]; CBD subcutaneously, dose not given", "result": "trend to be reduced to control levels"}, {"measurement": "level of expression of CD69 by lymphocytes", "setting": "human lymphocytes", "result": "reduced the level of expression of CD69"}, {"measurement": "level of expression of CD69 by monocytes", "setting": "human monocytes", "result": "reduced the level of expression of CD69"}, {"measurement": "overall bioavailability", "setting": "[6]", "result": "less than 10%"}]}]}
